Measured values as given in patent US7495127B2, “Potassium channel opener” (Mitsubishi Tanabe Pharma Corporation, priority 2001, dated 2009).

Assays:
BKα [1] = biological target: T1, BKα (Rattus norvegicus, UniProt Q62976); test: Single channel current recording by inside-out patch clamp, BKα expressed on HEK293 cells; format: cell-based
T1 construct: expressed in transfected cells; host or cells: HEK293
Description: (§1) Calcium-activated potassium channel (hereinafter abbreviated as “BK channel” in Examples) functions with two kinds of proteins α (BKα) and β (BKβ) subunits being arranged in tetramers. BKα consists a main part of a channel and BKβ is an activity regulating factor. […] In accordance with a method of Ahring, et al. (Ahring P. K., et al., FEBS Lett., 415, pp. 67-70, 1997), cDNAs of BKα and BKβ1 genes derived from rat uterus smooth muscle (GenBank accession numbers; U55995 and AF020712) were introduced into HEK293 cells by using calcium phosphate coprecipitation transfection techniques, to constantly overexpress BKα or BKαβ.
(a) Single Channel Current Recording by Inside-Out Patch Clamp Technique
By using Inside-out patch clamp technique, fragments of cell membrane containing the channels were isolated, and by artificially controlling an environment of inside of the cell membrane, opening or closing of a single channel can be directly observed. This is a fully established method not only for functional analysis of the channel, but also for testing quantitative effects of the channel agonists (Hamil, O. P., et al., Pflgers Archiv., 391, pp. 85-100, 1981).
Under this condition, action and effect of pimaric acid for BKα was measured.
In Current Amplitude, 0 pA means a closing state. […] In FIG. 3, a relation between a concentration of pimaric acid and an effect of BK channel activation is shown under this condition. By addition of pimaric acid at concentration of 3 μm or more, a significant increase in channel opening probability was confirmed.

BKα [2] = biological target: T1, BKα; test: Membrane current recording by whole cell voltage-clamp, HEK293 cell expressing BKα channels; format: cell-based
Description: as §1
(b) Membrane Current Recording by Whole Cell Voltage-Clamp Technique
Membrane current of the whole cell by opening of BKα channels was recorded by Whole cell voltage-clamp technique. This technique is frequently employed to analyze the functions shown by the ion channels expressed in numbers on a cell membrane as a whole, and is a well established technique (Hamil, O. P. the above mentioned reference).

BKαβ1 [3] = biological target: T2, BKαβ1 (Rattus norvegicus, UniProt Q62976); test: Whole-cell current recording (whole-cell patch clamp), HEK293 constantly expressing rat BKα+β1; format: cell-based; settings: pCa 6.5, depolarization −60 mV to +10 mV
T2 construct: expressed in transfected cells; host or cells: HEK293
T2 sequence (Q62976 whole entry): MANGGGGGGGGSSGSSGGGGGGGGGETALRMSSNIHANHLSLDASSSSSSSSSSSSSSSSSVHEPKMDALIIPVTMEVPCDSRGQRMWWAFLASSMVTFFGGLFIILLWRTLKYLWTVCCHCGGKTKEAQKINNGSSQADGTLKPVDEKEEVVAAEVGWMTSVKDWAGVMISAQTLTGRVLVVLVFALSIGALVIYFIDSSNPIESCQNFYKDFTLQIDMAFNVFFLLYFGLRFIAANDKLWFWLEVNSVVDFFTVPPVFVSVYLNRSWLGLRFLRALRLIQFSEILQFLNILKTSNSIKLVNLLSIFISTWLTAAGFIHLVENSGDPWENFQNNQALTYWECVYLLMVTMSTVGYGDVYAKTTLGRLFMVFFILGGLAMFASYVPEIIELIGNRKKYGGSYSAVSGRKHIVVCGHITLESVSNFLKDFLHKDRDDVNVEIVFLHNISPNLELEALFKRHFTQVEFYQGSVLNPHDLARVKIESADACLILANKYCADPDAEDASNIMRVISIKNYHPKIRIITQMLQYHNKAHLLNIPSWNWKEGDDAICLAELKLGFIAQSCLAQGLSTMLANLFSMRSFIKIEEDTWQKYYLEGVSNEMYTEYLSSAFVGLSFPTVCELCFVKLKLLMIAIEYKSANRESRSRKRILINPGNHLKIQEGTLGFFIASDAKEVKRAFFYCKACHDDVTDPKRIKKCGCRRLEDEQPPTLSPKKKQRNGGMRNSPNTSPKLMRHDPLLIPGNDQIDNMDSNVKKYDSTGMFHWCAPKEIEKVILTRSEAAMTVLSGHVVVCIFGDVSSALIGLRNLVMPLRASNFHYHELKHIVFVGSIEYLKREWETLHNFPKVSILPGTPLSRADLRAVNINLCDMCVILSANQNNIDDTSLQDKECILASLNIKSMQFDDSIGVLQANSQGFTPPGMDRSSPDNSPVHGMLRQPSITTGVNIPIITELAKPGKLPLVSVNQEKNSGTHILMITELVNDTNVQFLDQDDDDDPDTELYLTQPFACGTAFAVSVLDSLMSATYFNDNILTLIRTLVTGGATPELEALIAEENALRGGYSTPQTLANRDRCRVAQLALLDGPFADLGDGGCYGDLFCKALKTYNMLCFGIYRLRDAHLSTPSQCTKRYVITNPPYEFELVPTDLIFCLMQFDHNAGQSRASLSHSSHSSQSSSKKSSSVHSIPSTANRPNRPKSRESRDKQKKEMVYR
T2 sequence (P97678 whole entry partner): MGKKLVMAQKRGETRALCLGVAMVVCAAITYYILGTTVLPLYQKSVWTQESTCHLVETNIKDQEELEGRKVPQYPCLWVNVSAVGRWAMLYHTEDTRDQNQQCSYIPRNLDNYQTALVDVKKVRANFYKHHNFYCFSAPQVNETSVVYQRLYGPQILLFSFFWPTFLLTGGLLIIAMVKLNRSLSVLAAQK
Procedure: According to the whole-cell patch clamp technique, whole-cell currents were recorded on HEK293 cell, in which rat BKα+β1 subunits were constantly expressed. All the experiments were carried out at 22-24° C.
Pipette solution (mM) 140 KCl, 4 MgCl2, 5 ATP, 10 HEPES, 5 EGTA (the pCa was adjusted to 6.5 by adding a suitable amount of CaCl2 to stabilize the pCa). The pH was adjusted to 7.2 with KOH.
Extracellular fluid (mM) 137 NaCl, 5.9 KCl, 2.2 CaCl2, 1.2 MgCl2, 14 Glucose, 10 HEPES. The pH was adjusted to 7.4 with NaOH.
(§2) Since the test compounds were highly aliphatic, and hard to dissolve in water, they were dissolved by DMSO and preserved as 30 mM stock solutions. On administration, final concentration in the DMSO solutions were made at most 0.03%. Incidentally, DMSO was confirmed not to have any influence on BK currents, when its concentration is 0.3% or less.
The whole-cell currents were recorded with the cells in which BK(α+β1) channels were constantly expressed, by the whole-cell patch clamp technique. The Ca^2+ concentration in the intracellular fluid was fixed at pCa 6.5 with Ca^2+-EGTA buffer. The pulse depolarizing from the resting potential −60 mV to +10 mV, was added for 150 mseconds, and the elicited currents were observed. By the depolarizing stimulus, moderately activated outward currents were observed, which are characteristic of BK(α+β1) channel (control in FIG. 4B). After establishing the whole cell, the recording was started at a point where stable current measurements were obtained for 20 minutes. […] After that, by washout, the current went back almost to the level prior to application of the test compounds (FIG. 4A). As a result of a statistical analysis based on the recordings of the 4 examples, the currents were activated by 1.90±0.21 times at concentration of 100 nM, 2.54±0.14 times at 300 nM, and 6.37±0.91 times at 1 μm, by this activating effect.

BKαβ1 [4] = biological target: T2, BKαβ1; test: BK channel currents in single HEK293 cell expressing BK(α+β1) channels (HEKBKαβ1) under whole-cell voltage clamp; format: cell-based; settings: 1 to 10 μm; pCa 6.5
Description: (§3) Effects of test compounds on BK channel currents were examined in single HEK293 cell expressing BK(α+β1) channels (hereinafter referred to as HEKBKαβ1) under whole-cell voltage clamp. The Ca^2+ concentration in the pipette solution was fixed at pCa 6.5 using a Ca^2+-EGTA buffer. Depolarization from −60 mV to +30 mV induced outward currents in both native HEK293 and HEKBKαβ1, but the current density was much higher in the latter (the current density at the peak: 11.0±1.8 and 95.2±20.9 pA/pF, n=5 and 6, respectively, p<0.05). […] This enhancement of outward current by pimaric acid could be removed completely by washout. Effects of other test compounds were also examined in this manner. The peak amplitude of outward current at +40 mV in the presence of 1, 3, and 10 μm resin acids was measured relative to the value taken just before the application (FIG. 6B).

native HEK293 = test: Outward currents in native HEK293 under whole-cell voltage clamp; format: cell-based, human; settings: 1 to 10 μm; pCa 6.5
Description: as §3

BKαβ1 [5] = biological target: T2, BKαβ1; test: Concentration-dependent block of macroscopic currents by ChTX in HEKBKαβ1, in the absence and presence of pimaric acid; format: cell-based
Description: The outward currents elicited by depolarization from −60 mV in 10 mV steps were enhanced at potentials positive to −20 mV. The current at +40 mV was increased from 1214±153 to 2527±448 pA (n=5, p<0.05). […] The currents at +40 mV in the presence of 10 μm pimaric acid was reduced from 2527±448 pA to 499±90 pA (p<0.01 versus before the application of and in the presence of 10 μm pimaric acid). […] The normalized data were well fitted with the Hill equation modified for the concentration-response relationship. […] The relationship in the presence of 10 μm pimaric acid was almost identical with that in its absence.

BKαβ1 [6] = biological target: T2, BKαβ1; test: Single-channel recording (inside-out patch clamp), HEK293 constantly expressing rat BKα+β1; format: cell-based; settings: pCa 7.0, +40 mV
Procedure: According to the inside-out patch clamp technique, a single channel current was recorded on HEK293, in which rat BKα+β1 subunits were constantly expressed. All the experiments were carried out at 22-24° C.
Intracellular fluid (mM) 140 KCl, 1.2 MgCl2, 14 Glucose, 5 EGTA (the pCa was adjusted to 7 by adding a suitable amount of CaCl2 to stabilize the pCa). The pH was adjusted to 7.2 with NaOH.
Extracellular fluid (mM) 140 KCl, 4 MgCl2, 5 ATP, 10 HEPES, 0.05 EGTA. The pH was adjusted to 7.2 with KOH.
as §2
In order to further confirm this point, a single channel current recording was carried out. The single channel current was recorded with respect to the cells in which BK(α+β1) channels were constantly expressed, by the inside-out patch clamp technique. The intracellular fluid (the fluid contacting the inner side of the cell membrane) was fixed at pCa 7.0. […] From these histograms, channel opening probability was calculated to show relation between the concentration and effect as shown in FIG. 5C.

T1 sequence (Q62976 whole entry): as the sequence (Q62976 whole entry) above

In the case of C=C[C@@]1(C)C=C2CC[C@@H]3[C@](C)(CCC[C@@]3(C)C(=O)O)[C@H]2CC1 [pimaric acid], the “increase of opening probability” value (BKα [1]; 1 μM, Ca of inner side 0.3 μm, patch membrane potential +40 mV) was “increased by three times”, the “time of an opening state (histograms of 30 s current recordings)” value (BKα [1]; 1 μm or 10 μm, +40 mV, Ca 0.1 μM) was “increased time of an opening state” and the “concentration giving a significant increase in channel opening probability” value (BKα [1]; +40 mV, Ca 0.1 μM) was no less than 3 μm. For the same molecule, the “channel activity (BKα single channel)” value (BKα [1]; added to solution of inner side of cell membrane at 10 μm or less, +40 mV, Ca 0.1 μM) was “significantly increased”, the “BK channel opening effect relative to NS-1619” value (BKα [1]; comparison with known compound) was no less than 10 times and the “BK channel opening effect relative to maxikdiol described in the reference” value (BKα [1]; comparison with literature value) was “at least three times or more”. For the same molecule, the “increase of BKα current” value (BKα [2]; 1 μm added to extracellular fluid, +60 mV) was “about 50%”, the “activation of whole-cell current” value (BKαβ1 [3]; 1 μm) was 1.92±0.24 times and the “outward currents in HEKBKαβ1” value (BKαβ1 [4]) was “increased outward currents in a dose-dependent fashion”. For the same molecule, the “outward currents in native HEK293” value (native HEK293) was “did not change”, the “effect on the binding of ChTX to BK channels” value (BKαβ1 [5]; 10 μm pimaric acid) was “does not affect the binding of ChTX to BK channels” and the “outward current at +40 mV” value (BKαβ1 [5]; 10 μm pimaric acid, control 1214±153 pA) was 2527±448 pA.
With charybdotoxin [ChTX] the “current amplitude at +40 mV after ChTX” value (BKαβ1 [5]; 100 nM ChTX in the absence of pimaric acid, before 1233±226 pA) was 205±46 pA, the “outward current at +40 mV after ChTX” value (BKαβ1 [5]; 100 nM ChTX in the presence of 10 μm pimaric acid, before 2527±448 pA) was 499±90 pA and the “C (constant; native K+ currents insensitive to ChTX)” value (BKαβ1 [5]; absence of pimaric acid) was 0.077±0.0226. For the same molecule, the “nH (Hill coefficient)” value (BKαβ1 [5]; absence of pimaric acid) was 0.847±0.034, the “C (constant; native K+ currents insensitive to ChTX)” value (BKαβ1 [5]; presence of 10 μm pimaric acid) was 0.0965±0.0388 and the “nH (Hill coefficient)” value (BKαβ1 [5]; presence of 10 μm pimaric acid) was 0.982±0.161.
In the case of CC[N+](CC)(CC)CC [tetraethylammonium, reference compound], the “inhibition of the action of pimaric acid on BKα current” value (BKα [2]; 1 mM tetraethylammonium) was “completely inhibited”.
CC(C)c1c(Cl)cc2c(c1Cl)CC[C@H]1[C@](C)(C(=O)O)CCC[C@]21C [dichlorodehydroabietic acid] was tested, and the “activation of whole-cell current” value (BKαβ1 [3]; 100 nM) was 1.90±0.21 times, the “activation of whole-cell current” value (BKαβ1 [3]; 300 nM) was 2.54±0.14 times and the “activation of whole-cell current” value (BKαβ1 [3]; 1 μm) was 6.37±0.91 times. For the same molecule, the “concentration at which channel activation was observed” value (BKαβ1 [6]; applied to inner side of cell membrane) was no less than 100 nM and the “relation between concentration and channel opening probability” value (BKαβ1 [6]) was “concentration-dependent”.
